Reference: ChEMBL document CHEMBL3885881, “DrugMatrix”

Species on record: Rattus norvegicus
Assay: DrugMatrix - Regimen: Daily Repeat
Type: toxicity, organism-based, Sprague-Dawley
Parameters: regimen Daily Repeat, gender Male, age 6-8 weeks
Conditions: in vivo, po, route oral GAVAGE, vehicle 100 % WATER; for ABSOLUTE BASOPHIL / ABSOLUTE EOSINOPHIL / ABSOLUTE LYMPHOCYTE / ABSOLUTE MONOCYTE / ABSOLUTE SEGMENTED NEUTROPHIL / BASOPHIL / EOSINOPHIL / ERYTHROCYTE COUNT / HEMATOCRIT / HEMOGLOBIN / LEUKOCYTE COUNT / LYMPHOCYTE / MEAN CORPUSCULAR HEMOGLOBIN / MEAN CORPUSCULAR HEMOGLOBIN CONCENTRATION / MEAN CORPUSCULAR VOLUME / MONOCYTE / NEUTROPHIL / NUCLEATED RED BLOOD CELLS / PLATELET COUNT: tissue Blood; for ALANINE AMINOTRANSFERASE / ALBUMIN / ALKALINE PHOSPHATASE / ASPARTATE AMINOTRANSFERASE / BLOOD UREA NITROGEN / CARBON DIOXIDE / CHLORIDE / CHOLESTEROL / CREATINE PHOSPHOKINASE / CREATININE / GLUCOSE / LACTATE DEHYDROGENASE / LIPASE / PHOSPHORUS / POTASSIUM / SODIUM / TOTAL BILIRUBIN / TOTAL PROTEIN / URIC ACID: tissue Plasma
[1] = 20 mg/kg, 120 h, dose level Low, time 5 day
[2] = 160 mg/kg, 72 h, dose level High, time 3 day
[3] = 160 mg/kg, 120 h, dose level High, time 5 day

CN(C)CCC=C1c2ccccc2CCc2ccccc21 [AMITRIPTYLINE]
ABSOLUTE BASOPHIL [1]: 0 CELLS/uL
ABSOLUTE EOSINOPHIL [1]: 0 CELLS/uL
ABSOLUTE LYMPHOCYTE [1]: 11980.67 CELLS/uL
ABSOLUTE MONOCYTE [1]: 40.67 CELLS/uL
ABSOLUTE SEGMENTED NEUTROPHIL [1]: 1045.33 CELLS/uL
BASOPHIL [1]: 0%
EOSINOPHIL [1]: 0%
ERYTHROCYTE COUNT [1]: 5.76 x10E6/uL
HEMATOCRIT [1]: 35.93%
HEMOGLOBIN [1]: 14.33 G/DL
LEUKOCYTE COUNT [1]: 13.07 x10E3/uL
LYMPHOCYTE [1]: 91.33%
MEAN CORPUSCULAR HEMOGLOBIN [1]: 24.93 pg
MEAN CORPUSCULAR HEMOGLOBIN CONCENTRATION [1]: 39.9 G/DL
MEAN CORPUSCULAR VOLUME [1]: 62.43 fL
MONOCYTE [1]: 0.33%
NEUTROPHIL [1]: 8.33%
NUCLEATED RED BLOOD CELLS [1]: 0.33 /100WBC
PLATELET COUNT [1]: 1316.67 x10E3/uL
ALANINE AMINOTRANSFERASE [1]: 43.67 u/L
ALBUMIN [1]: 4 G/DL
ALKALINE PHOSPHATASE [1]: 394 u/L
ASPARTATE AMINOTRANSFERASE [1]: 89.67 u/L
BLOOD UREA NITROGEN [1]: 15.33 mg/dL
CARBON DIOXIDE [1]: 30 mmol/L
CHLORIDE [1]: 100.33 MEQ/L
CHOLESTEROL [1]: 66.67 mg/dL
CREATINE PHOSPHOKINASE [1]: 486 u/L
CREATININE [1]: 0.18 mg/dL
GLUCOSE [1]: 145.33 mg/dL
LACTATE DEHYDROGENASE [1]: 605.67 u/L
LIPASE [1]: 11 u/L
PHOSPHORUS [1]: 12.43 mg/dL
POTASSIUM [1]: 6.68 MEQ/L
SODIUM [1]: 141.6 MEQ/L
TOTAL BILIRUBIN [1]: 0.2 mg/dL
TOTAL PROTEIN [1]: 5.97 G/DL
URIC ACID [1]: 1.87 mg/dL
ABSOLUTE BASOPHIL [2]: 0 CELLS/uL
ABSOLUTE EOSINOPHIL [2]: 85.33 CELLS/uL
ABSOLUTE LYMPHOCYTE [2]: 16571 CELLS/uL
ABSOLUTE MONOCYTE [2]: 212.67 CELLS/uL
ABSOLUTE SEGMENTED NEUTROPHIL [2]: 697.67 CELLS/uL
BASOPHIL [2]: 0%
EOSINOPHIL [2]: 0.67%
ERYTHROCYTE COUNT [2]: 5.93 x10E6/uL
HEMATOCRIT [2]: 38.63%
HEMOGLOBIN [2]: 15.33 G/DL
LEUKOCYTE COUNT [2]: 17.57 x10E3/uL
LYMPHOCYTE [2]: 94%
MEAN CORPUSCULAR HEMOGLOBIN [2]: 25.83 pg
MEAN CORPUSCULAR HEMOGLOBIN CONCENTRATION [2]: 39.7 G/DL
MEAN CORPUSCULAR VOLUME [2]: 65.13 fL
MONOCYTE [2]: 1%
NEUTROPHIL [2]: 4.33%
NUCLEATED RED BLOOD CELLS [2]: 0 /100WBC
PLATELET COUNT [2]: 1403.33 x10E3/uL
ALANINE AMINOTRANSFERASE [2]: 60 u/L
ALBUMIN [2]: 4.1 G/DL
ALKALINE PHOSPHATASE [2]: 422 u/L
ASPARTATE AMINOTRANSFERASE [2]: 80.33 u/L
BLOOD UREA NITROGEN [2]: 14 mg/dL
CARBON DIOXIDE [2]: 34 mmol/L
CHLORIDE [2]: 102 MEQ/L
CHOLESTEROL [2]: 83 mg/dL
CREATINE PHOSPHOKINASE [2]: 464 u/L
CREATININE [2]: 0.15 mg/dL
GLUCOSE [2]: 151.67 mg/dL
LACTATE DEHYDROGENASE [2]: 162.67 u/L
LIPASE [2]: 10.33 u/L
PHOSPHORUS [2]: 11.3 mg/dL
POTASSIUM [2]: 5.61 MEQ/L
SODIUM [2]: 145.53 MEQ/L
TOTAL BILIRUBIN [2]: 0.13 mg/dL
TOTAL PROTEIN [2]: 5.93 G/DL
URIC ACID [2]: 1.57 mg/dL
ABSOLUTE BASOPHIL [3]: 0 CELLS/uL
ABSOLUTE EOSINOPHIL [3]: 42.33 CELLS/uL
ABSOLUTE LYMPHOCYTE [3]: 10052.67 CELLS/uL
ABSOLUTE MONOCYTE [3]: 70 CELLS/uL
ABSOLUTE SEGMENTED NEUTROPHIL [3]: 435 CELLS/uL
BASOPHIL [3]: 0%
EOSINOPHIL [3]: 0.33%
ERYTHROCYTE COUNT [3]: 5.82 x10E6/uL
HEMATOCRIT [3]: 36.27%
HEMOGLOBIN [3]: 14.2 G/DL
LEUKOCYTE COUNT [3]: 10.6 x10E3/uL
LYMPHOCYTE [3]: 94.67%
MEAN CORPUSCULAR HEMOGLOBIN [3]: 24.37 pg
MEAN CORPUSCULAR HEMOGLOBIN CONCENTRATION [3]: 39.17 G/DL
MEAN CORPUSCULAR VOLUME [3]: 62.27 fL
MONOCYTE [3]: 0.67%
NEUTROPHIL [3]: 4.33%
NUCLEATED RED BLOOD CELLS [3]: 0.33 /100WBC
PLATELET COUNT [3]: 1249.67 x10E3/uL
ALANINE AMINOTRANSFERASE [3]: 49.67 u/L
ALBUMIN [3]: 4 G/DL
ALKALINE PHOSPHATASE [3]: 363.67 u/L
ASPARTATE AMINOTRANSFERASE [3]: 96.67 u/L
BLOOD UREA NITROGEN [3]: 14.67 mg/dL
CARBON DIOXIDE [3]: 30.33 mmol/L
CHLORIDE [3]: 100.67 MEQ/L
CHOLESTEROL [3]: 72.67 mg/dL
CREATINE PHOSPHOKINASE [3]: 1225 u/L
CREATININE [3]: 0.16 mg/dL
GLUCOSE [3]: 188 mg/dL
LACTATE DEHYDROGENASE [3]: 246.67 u/L
LIPASE [3]: 10.33 u/L
PHOSPHORUS [3]: 12.93 mg/dL
POTASSIUM [3]: 5.4 MEQ/L
SODIUM [3]: 143.4 MEQ/L
TOTAL BILIRUBIN [3]: 0.17 mg/dL
TOTAL PROTEIN [3]: 6.23 G/DL
URIC ACID [3]: 1.83 mg/dL
